Source: PubChem BioAssay (NCI)
“And” between values parts separate entries of the source, which are not always exact repeats. Equal entries are not always repeated.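 Step 1: Grow cells in 96-well plates. Step 2: Expose to compound for 48 hours at 5 concentrations. Step 3: Interpolate endpoints linearly; if unreached, use highest concentration. GI50: concentration for 50% inhibition of growth. Definition used: TGI = concentration required for complete inhibition of growth.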

Tests used:
Assay in all cases: inhibition of tumour cell growth, NCI panel, 48 h
[1] = tested on: HOP-62 NSCLC
[2] = tested on: UACC-62 melanoma
[3] = tested on: SW-620 colon
[4] = tested on: OVCAR-4 ovarian
[5] = tested on: RPMI-8226 leukemia
[6] = tested on: OVCAR-8 ovarian
[7] = tested on: MOLT-4 leukemia
[8] = tested on: NCI-H23 lung
[9] = tested on: MALME-3M melanoma
[10] = tested on: NCI/ADR-RES ovarian

SMILES	GI50 [1]	TGI [1]	GI50 [2]	TGI [2]	GI50 [3]	TGI [3]	GI50 [4]	TGI [4]	GI50 [5]	TGI [5]	GI50 [6]	TGI [6]	GI50 [7]	TGI [7]	GI50 [8]	TGI [8]	GI50 [9]	TGI [9]	GI50 [10]	TGI [10]
Cc1cc(O)cc(C)c1/C=C/c1cncc(-c2nn[nH]n2)c1	> 25 µM	> 25 µM	> 25 µM	> 25 µM	> 25 µM	> 25 µM	> 25 µM	> 25 µM	> 25 µM	> 25 µM	> 25 µM	> 25 µM	> 25 µM	> 25 µM	> 25 µM	> 25 µM	> 25 µM	> 25 µM	> 25 µM	> 25 µM
Nc1c(C(=O)c2ccc(CCCN3CCOCC3)cc2)cnn1-c1ccc(F)cc1	> 25 µM	> 25 µM	> 25 µM	> 25 µM	> 25 µM	> 25 µM	> 19.1 µM	> 25 µM	> 15.4 µM	> 25 µM	> 25 µM	> 25 µM	> 25 µM	> 25 µM	> 25 µM	> 25 µM	> 25 µM	> 25 µM	> 25 µM	> 25 µM
O=S(=O)(Nc1cc(Cl)ccc1Cl)c1ccc(-c2cnc(C3CC3)o2)cc1	1.64 µM	27.5 µM	0.399 µM	23.9 µM	0.814 µM	> 100 µM	11.8 µM	> 100 µM	2.44 µM	> 100 µM	3.95 µM	> 100 µM	1.64 µM	> 100 µM	2.84 µM	67.2 µM	10.8 µM	57.6 µM	1.22 µM	82.6 µM
O=c1oc2ccc(-n3c(=O)c4ccccc4c4ccccc4c3=O)cc2c2ccccc12	–	> 100 µM	–	> 100 µM	–	> 100 µM	–	> 100 µM	–	> 100 µM	–	> 100 µM	–	> 100 µM	–	> 100 µM	–	> 100 µM	–	> 100 µM
Cc1ncsc1-c1ccc(CNC(=O)[C@@H]2C[C@@H](O)CN2C(=O)[C@@H](NC(=O)C2(C#N)CC2)C(C)(C)C)cc1	> 100 µM	> 100 µM	62.6 µM	> 100 µM	> 100 µM	> 100 µM	80.7 µM	> 100 µM	62.4 µM	> 100 µM	> 100 µM	> 100 µM	> 100 µM	> 100 µM	> 100 µM	> 100 µM	> 100 µM	> 100 µM	> 100 µM	> 100 µM
COc1ccc(-c2nc(N3CCN(C(=O)C4CCCCC4)CC3)c3c4c(sc3n2)CCCC4)cc1	27.5 µM	86 µM	40.8 µM	> 100 µM	> 100 µM	> 100 µM	> 100 µM	> 100 µM	22 µM	> 100 µM	46.4 µM	> 100 µM	> 100 µM	> 100 µM	63.1 µM	> 100 µM	92.1 µM	> 100 µM	> 100 µM	> 100 µM
O=C(CCC(C(=O)c1ccccc1)c1ccccc1)c1ccccc1 (stereo not drawn)	25.5 µM	> 100 µM	7.15 µM	> 100 µM	3.75 µM	> 100 µM	16.5 µM	> 100 µM	5.75 µM	76.1 µM	21.6 µM	> 100 µM	5.75 µM	> 100 µM	10.8 µM	> 100 µM	5.51 µM	63.8 µM	4.74 µM	> 100 µM
O=C(/C(=C/c1ccc([N+](=O)[O-])cc1)SCc1ccc(F)cc1)c1ccc(Cl)cc1	18.9 µM	47.3 µM	5.4 µM	36.6 µM	2.03 µM	4.78 µM	3.12 µM	13 µM	1.92 µM	6.36 µM	6.6 µM	96.6 µM	3.54 µM	> 100 µM	11 µM	68.7 µM	10.1 µM	24.6 µM	4.57 µM	> 100 µM
CNC(=O)Oc1cc(C)c(/C=C/c2cncc(C(=O)NC)c2)c(C)c1	> 22.3 µM	> 25 µM	13.2 µM	> 25 µM	> 25 µM	> 25 µM	> 25 µM	> 25 µM	> 25 µM	> 25 µM	> 25 µM	> 25 µM	> 25 µM	> 25 µM	> 25 µM	> 25 µM	13.6 µM	> 25 µM	> 25 µM	> 25 µM
O=C(NN=C1CCCCC1)c1[nH]c2ccc(F)cc2c1-c1ccccc1	35.6 µM	> 100 µM	38.6 µM	> 100 µM	46.9 µM	> 100 µM	16.9 µM	69.4 µM	40.5 µM	> 100 µM	51.4 µM	> 100 µM	22.5 µM	61.9 µM	33.5 µM	> 100 µM	> 100 µM	> 100 µM	23.7 µM	86.1 µM
C[C@H](CCCNCCCNCCCN)[C@H]1CC[C@H]2[C@@H]3[C@H](OCCCN)C[C@H]4C[C@H](OCCCN)CC[C@]4(C)[C@H]3C[C@H](OCCCN)[C@]12C	1.44 µM	> 31.5 µM	0.871 µM	13.3 µM	0.98 µM	8.2 µM	> 45.2 µM	> 100 µM	0.418 µM	1.54 µM	2.27 µM	> 55.8 µM	1.09 µM	8.12 µM	1.48 µM	10.8 µM	4.27 µM	26 µM	4.75 µM	69.3 µM
N#CS.N=C=S.N=C=S.[Cu+2].[NH2-].[NH2-].[NH2-].[NH2-].c1ccc2ncccc2c1	36.9 µM	> 100 µM	19.4 µM	37 µM	> 100 µM	> 100 µM	20.6 µM	43.4 µM	> 100 µM	> 100 µM	> 100 µM	> 100 µM	> 100 µM	> 100 µM	> 100 µM	> 100 µM	> 100 µM	> 100 µM	> 100 µM	> 100 µM
COc1cc(O)c2c(c1)C(=O)c1cc3c(c(O)c1C2=O)C(OC1OC(C)C(O)C(O)C1OC)C(OC)C(C)(O)C3=O (stereo not drawn)	2.92 µM	26.1 µM and 9.56 µM	1.68 µM	3.16 µM and 4.1 µM	2.3 µM	8.38 µM and 5.41 µM	1.7 µM	8.04 µM and 2.64 µM	2.46 µM and 9.76 µM	59.6 µM and 30.5 µM	1.42 µM and 0.373 µM	5.27 µM and 1.62 µM	3.21 µM and 5.19 µM	11.7 µM and 17.3 µM	2.36 µM	6.03 µM and 8.08 µM	–	2.54 µM and 2.65 µM	2.86 µM	15.8 µM and 11 µM
O=C1c2ccccc2-c2c1c1c(O)cccc1n2-c1ccccc1	66.3 µM	> 100 µM	> 100 µM	> 100 µM	> 100 µM	> 100 µM	–	> 100 µM	0.0318 µM	93.8 µM	> 100 µM	> 100 µM	> 100 µM	> 100 µM	> 100 µM	> 100 µM	> 100 µM	> 100 µM	> 100 µM	> 100 µM
C/C(=C(\c1ccc(OCCN2CCCCCC2)cc1)c1ccc(OC(=O)Cc2ccccc2)cc1)c1ccc(Cl)cc1	2.67 µM	5.59 µM	2.73 µM	5.2 µM	2.56 µM	5.25 µM	2.82 µM	7.05 µM	1.82 µM	5.47 µM	3.24 µM	6.35 µM	3.09 µM	13.4 µM	2.81 µM	7.13 µM	2.86 µM	5.71 µM	2.99 µM	6.86 µM
COc1ccc(-c2cc(-c3ccc(O)cc3)nc3n[nH]c(N)c23)cc1	21.9 µM	53.9 µM	17.2 µM	34.5 µM	15.6 µM	38.1 µM	43.3 µM	> 100 µM	21.1 µM	66.8 µM	26.1 µM	91.6 µM	26.9 µM	> 100 µM	26.5 µM	68.3 µM	21 µM	44 µM	23.1 µM	51.9 µM
CNC(=O)c1cccc2c(Nc3ccc(NS(C)(=O)=O)cc3OC)c3cccc(C)c3nc12	–	0.155 µM	–	1.38 µM	–	5.5 µM	–	4.35 µM	–	1.7 µM	–	5.98 µM	–	0.0512 µM	–	0.58 µM	–	4.55 µM	–	9.36 µM
CCOC(=O)C(C)(C)C(O)C(C)C (stereo not drawn)	–	> 100 µM	–	> 100 µM	–	> 100 µM	–	> 100 µM	–	> 100 µM	–	> 100 µM	–	> 100 µM	–	> 100 µM	–	> 100 µM	–	> 100 µM
CCN(CC)CCNc1cc(-c2cccc(OC(F)(F)F)c2)nc2ccc(N3CCCC3)cc12	1.52 µM and 1.75 µM and 1.88 µM	2.96 µM and 3.24 µM and 4 µM	1.81 µM and 1.82 µM and 1.79 µM	3.47 µM and 3.28 µM and 3.51 µM	1.67 µM and 1.86 µM and 2.01 µM	3.25 µM and 3.79 µM and 4.36 µM	2.14 µM and 1.62 µM and 3.11 µM	7.86 µM and 3.67 µM and 12.9 µM	1.35 µM and 1.6 µM and 1.69 µM	3.54 µM and 3.94 µM and 4.22 µM	1.94 µM and 1.76 µM and 1.99 µM	4.04 µM and 3.36 µM and 4.24 µM	1.84 µM and 1.92 µM and 2.08 µM	4.7 µM and 4.92 µM and 6.08 µM	1.82 µM and 1.87 µM and 1.89 µM	3.65 µM and 3.72 µM	1.72 µM and 2.01 µM and 1.69 µM	3.34 µM and 3.76 µM and 3.17 µM	1.65 µM and 1.72 µM and 2.18 µM	3.19 µM and 3.3 µM and 4.53 µM
COc1ccc2c(c1OC)OCC(CN(C)C)C2=O (stereo not drawn)	–	> 88.7 µM	–	32.1 µM	–	26.4 µM	–	60.5 µM	–	8.56 µM	–	50.2 µM	–	5.32 µM	–	35.8 µM	–	34.8 µM	–	72.1 µM
Cc1cc(Oc2ccc3nc(COc4ccc(CC5SC(=O)NC5=O)cc4)n(C)c3c2)cc(C)c1N (stereo not drawn)	48.7 µM	> 100 µM	22.5 µM	72.4 µM	30.6 µM	> 100 µM	34.2 µM	> 100 µM	9.73 µM	45.4 µM	31.2 µM	> 86.5 µM	26.4 µM	69.5 µM	24.2 µM	> 72.2 µM	> 53.3 µM	> 100 µM	32.5 µM	> 100 µM
CCCCCCc1nc2nc(Cl)c(Cl)nc2[nH]1	> 100 µM	> 100 µM	3.2 µM	> 100 µM	> 100 µM	> 100 µM	6.33 µM	> 100 µM	2.66 µM	> 100 µM	> 100 µM	> 100 µM	5.21 µM	> 100 µM	3.68 µM	> 100 µM	4.63 µM	> 100 µM	6.92 µM	> 100 µM
CCCCN(CCCC)CCCn1c(=O)c2c3ccccc3n(C)c2n2nnc(-c3ccccc3)c12	30.6 µM	> 100 µM	22.4 µM	84.4 µM	26.5 µM	> 100 µM	17.6 µM	83.9 µM	6 µM	49.4 µM	39.7 µM	> 100 µM	13.9 µM	> 100 µM	13 µM	62.6 µM	28.4 µM	90 µM	14.3 µM	67.7 µM
O=C1OC(c2ccccc2)(c2cc(Br)c(O)c(Br)c2)c2ccccc21 (stereo not drawn)	17.9 µM	43.5 µM	15.6 µM	31.7 µM	27 µM	> 100 µM	22.7 µM	78.9 µM	28.7 µM	78.5 µM	29.3 µM	> 100 µM	30.4 µM	> 100 µM	21.3 µM	59.1 µM	25.3 µM	77.5 µM	26 µM	84.3 µM
CCOC(=O)[C@@H](C)C[C@H](Cc1ccccc1)NC(=O)c1csc([C@@H](C[C@H](C(C)C)N(C)C(=O)[C@H](CC)NC(=O)[C@H]2CCCCN2C)OC(C)=O)n1	0.00367 µM	> 16.7 µM	< 0.00167 µM	> 16.7 µM	< 0.00167 µM	> 16.7 µM	0.00397 µM	> 16.7 µM	< 0.00167 µM	> 16.7 µM	0.00434 µM	> 16.7 µM	0.00896 µM	> 16.7 µM	0.00476 µM	> 16.7 µM	< 0.00167 µM	> 16.7 µM	0.0675 µM	> 15.7 µM
